This is an account of results in US6949522B2, “β-2′- or 3′-halonucleosides” (Pharmasset, Inc., priority 2001, dated 2005).

Common to all, as to assay type: cell-based
Series [1] has as its system HIV-1LAI. The series can be described thus: HIV assay in human PBM cells (RT activity of supernatant). The settings on record: 5 days, read-out: Anti-HIV-1 Activity (EC50). From the text:
(§1) Human peripheral blood mononuclear (PBM) cells (obtained from Atlanta Red Cross) were isolated by Ficoll-Hypaque discontinuous gradient centrifugation from healthy seronegative donors. Cells were stimulated with phytohemagglutinin A (Difco, Sparks, Md.) for 2-3 days prior to use. HIV-1LAI obtained from the Centers for Disease Control and Prevention (Atlanta, Ga.) was used as the standard reference virus for the antiviral assays. The molecular infetious clones HIV-1xxBru and HIV-1M184Vpin were obtained from Dr. John Mellors (University of Pittsburgh). Infections were done in bulk for one hour, either with 100 TCID50/1×10^7 cells for a flask (T25) assay or with 200 TCID50/6×10^5 cells/well for a 24 well plate assay. Cells were added to a plate or flask containing a ten-fold serial dilution of the test compound. Assay medium was RPMI-1640 supplemented with heat inactivated 16% fetal bovine serum, 1.6 mM L-glutamine, 80 IU/ml penicillin, 80 μg/ml streptomycin, 0.0008% DEAE-Dextran, 0.045% sodium bicarbonate, and 26 IU/ml recombinant interleukin-2 (Chiron Corp, Emeryville, Calif.). AZT was used as a positive control for the assay. Untreated and uninfected PBM cells were grown in parallel at equivalent cell concentrations as controls. The cell cultures were maintained in a humidified 5% CO2-air at 37° C. for 5 days and supernatants were collected for reverse transcriptase (RT) activity.
(§2) Supernatants were centrifuged at 12,000 rpm for 2 hours to pellet the virus. The pellet was solubilized with vortexing in 100 μl virus solubilization buffer (VSB) containing 0.5% Triton X-100, 0.8 M NaCl, 0.5 mM phenylmethylsulfonyl fluoride, 20% glycerol, and 0.05 M Tris, pH 7.8. Ten μL of each sample were added to 75 μL RT reaction mixture (0.06 M Tris, pH 7.8, 0.012 M MgCl2, 0.006 M dithiothreitol, 0.006 mg/ml poly (rA)n, oligo (dT)12-18, 96 μg/ml dATP, and 1 μM of 0.08 mCi/ml ^3H-thymidine triphosphate (Moravek Biochemicals, Brea, Calif.) and incubated at 37° C. for 2 hours. The reaction was stopped by the addition of 100 μL 10% trichloroacetic acid containing 0.05% sodium pyrophosphate. The acid insoluble product was harvested onto filter paper using a Packard Harvester (Meriden, Conn.), and the RT activity was read on a Packard Direct Beta Counter (Meriden, Conn.). The RT results were expressed in counts per minute (CPM) per milliliter.

Series [2] concerns HIV-1xxBRU. Description: Antiviral activity in human PBM cells, HIV-1xxBRU. The settings on record: read-out: xxBRU (EC90).
Description: as §1, with “AZT was used as a positive control for the assay.” left out
as §2, with “milliliter. […]” for “milliliter.”

In series [3] the test system is CEM (T-lymphoblastoid cell line). Here is the method:
The compounds were evaluated for their potential toxic effects on uninfected PHA-stimulated human PBM cells, in CEM (T-lymphoblastoid cell line obtained from American Type Culture Collection, Rockville, Md.) and Vero (African green monkey kidney) cells. PBM cells were obtained from whole blood of healthy seronegative donors (HIV-1 and hepatitis B virus) by single-step Ficoll-Hypaque discontinous gradient centrifugation. Log phase Vero, CEM and PHA-stimulated human PBM cells were seeded at a density of 5×10^3, 2.5×10^3 and 5×10^4 cells/well respectively. All of the cells were plated in 96-well cell culture plates containing ten-fold serial dilutions of the test drug. The cultures were incubated for 3, 4 and 5 days for Vero, CEM, and PBM cells, respectively in a humidified 5% CO2-air at 37° C. At the end of incubation, MTT tetrazolium dye solution (Cell titer 96®, Promega, Madison, Wis.) was added to each well and incubated overnight. The reaction was stopped with stop solubilization solution (Promega, Madison, Wis.). The plates were incubated for 5 hours to ensure that the formazan crystals were dissolved. The plates were read at a wavelength of 570 nm using an ELISA plate reader (Bio-tek instruments, Inc., Winooski, Vt., Model # EL 312e). […] Bookmark not defined.

For series [4], the system named is HIV-1M184V. Description: Antiviral activity against lamivudine-resistant (HIV-1M184V) mutant strain in human PBM cells. The note with it: for EC90: read-out: M184V (EC90).
Description: as §1, with “AZT was used as a positive control for the assay.” left out
as §2
A single mutation at residue 184 (M184V) in the catalytic domain of HIV-1 RT bring about a high-level of resistance to 3TC, causing the 50% inhibitory concentration of 3TC to be increased at least 1,000-fold (Schinazi, R. F.; Lloyd, Jr. R. M.; Nguyen, M. -H.; Cannon, D. L.; McMillan, A.; Ilksoy, N.; Chu, C. K.; Liotta, D. C.; Bazni, H. Z.; Mellors, J. W. Characterizatin of human immunodeficiency viruses resistant to oxthiolane-cytosine nucleosides. Antimicrob Agents Chemother. 1993, 37, 875-881; Tisdale, M.; Kemp, S. D.; Parry, N. R.; Larder, B. A. Rapid in vitro selection of human immunodeficiency virus type 1 resistant to 3′-thiacytidine inhibitors due to a mutation in the YMDD region of reverse transcnptase. Proc. Natl. Acad. Sci. USA 1993, 90, 5653-5656), contributing to the failure of anti-AIDS combination therapy. […] K. Synthesis and anti-HIV and anti-HBV activities of 2′-fluoro-2′,3′-unsaturated L-nucleosides.

Setting [5] is: Human immunodeficiency virus 1, PBMC.

Like-named read-outs stand apart in the source and are kept apart here.

For the molecule `Cc1cn([C@H]2C[C@H](N=[N+]=[N-])[C@@H](CO)O2)c(=O)[nH]c1=O` [AZT, 3′-azido-3′-deoxythymidine, reference compound], the EC50 in series [1] (Human immunodeficiency virus 1, PBMC, 120 h) stood at 0.004 µM. For the same molecule, the 90% effect concentration (EC90) in series [2] (setting [5]) was 0.01 µM; in series [4] (setting [5]), 0.003 µM. The molecule further had an IC50 in series [3] (human, 4 days) of 29 µM.

`Nc1ccn([C@@H]2CS[C@H](CO)O2)c(=O)n1` [Compound 3TC, (−)-β-2′,3′-dideoxy-3′-thiacytidine, reference compound]: the EC90 in series [2] (setting [5]) is 0.08 µM; in series [4] (setting [5]), 535 µM. For the same molecule, the “FI, fold increase (EC90 HIV-1M184V/EC90 HIV-1xxBRU)” value (“FI, fold increase” below) in series [4] (human PBM cells) is given as 6,688.

As to `Nc1ccn([C@@H]2S[C@H](CO)C=C2F)c(=O)n1` [Compound D-17, (−)-1-[(1S,4R)-2,3-dideoxy-2,3-didehydro-2-fluoro4-thio-β-D-ribofuranosyl]-cytosine], the EC50 in series [1] is 1.3 µM. Also, the EC90 in series [2] (human PBM cells) was 5 µM. In series [3], the IC50 was over 100 µM. Also, in series [4] (human PBM cells), the “FI, fold increase” value worked out at 25 and the EC90 was about 125 µM.

In the case of `Nc1nc(=O)n([C@@H]2S[C@H](CO)C=C2F)cc1F` [Compound D-18, (−)-1-[(1S,4R)-2,3-dideoxy-2,3-didehydro-2-fluoro-4-thio-β-D-ribofuranosyl]-5-fluorocytosine], in series [1], the EC50 is 11.6 µM. In series [3], this molecule returned an IC50 of over 100 µM.

As to `Nc1ccn([C@H]2S[C@@H](CO)C=C2F)c(=O)n1` [Compound L-17, (+)-1-[(1S,4R)-2,3-dideoxy-2,3-didehydro-2-fluoro-4-thio-β-L-ribofuranosyl]-cytosine], in series [2] (human PBM cells), the EC90 was found to be 1.4 µM. The IC50 in series [3] was over 100 µM. For the same molecule, in series [4] (human PBM cells), the “FI, fold increase” value is listed as over 100 and the EC90 was over 100 µM.

On to `Nc1nc(=O)n([C@H]2S[C@@H](CO)C=C2F)cc1F` [Compound L-18, (+)-1-[(1S,4R)-2,3-dideoxy-2,3-didehydro-2-fluoro-4-thio-β-L-ribofuranosyl]-5-fluoro-cytosine], for which, in series [1], the EC50 was 0.15 µM. The IC50 in series [3] is over 100 µM.
